Values of other authors as cited in PMC9267059, “Selective Inhibition of Murine Cytomegalovirus Viral Gene Expression by the Antiviral Peptide TAT-I24” (International Journal of Molecular Sciences, 2022).

Key:
NIH/3T3 cells = conditions: 20 µM; cited from earlier work
Text: This strain was also used in the present investigation. […] However, with increasing concentrations of TAT-I24, the cytopathic effects caused by the virus infection were inhibited (Figure 1A).

[1] = test system: respiratory syncytial virus (RSV); conditions: cited from earlier work
Text: (§1) We have described the novel antiviral peptide TAT-I24, a fusion of the 9-mer peptide I24 and the TAT peptide, which exerts broad-spectrum activity against several double-stranded DNA viruses. […] The antiv ...

herpes simplex virus = conditions: cited from earlier work
Text: as §1

[2] = test system: human immunodeficiency virus-1 (HIV-1); conditions: cited from earlier work
Text: as §1

[3] = test system: human cytomegalovirus (CMV); conditions: cited from earlier work
Text: as §1

[4] = test system: non-replicating baculovirus; conditions: mammalian cells; cited from earlier work
Text: as §1

SV40 polyomavirus = conditions: cited from earlier work
Text: as §1

some adenoviruses = conditions: cited from earlier work
Text: as §1

vaccinia virus = conditions: cited from earlier work
Text: as §1

[5] = test system: mouse cytomegalovirus (CMV); conditions: cited from earlier work

GRKKRRQRRRPPQCLAFYACFC [TAT-I24, antiviral peptide, a fusion of the 9-mer peptide I24 and the TAT peptide]
cell viability (NIH/3T3 cells): does not affect cell viability
inhibition of RSV [1]: Partial inhibition
replication of herpes simplex virus (herpes simplex virus): inhibit replication
inhibition of HIV-1 [2]: Partial inhibition
replication of human cytomegalovirus [3]: inhibit replication
reporter gene expression from a non-replicating baculovirus [4]: reduction of reporter gene expression
replication of SV40 polyomavirus (SV40 polyomavirus): inhibit replication
replication of some adenoviruses (some adenoviruses): inhibit replication
replication of vaccinia virus (vaccinia virus): inhibit replication
replication of mouse cytomegalovirus (MCMV) [5]: inhibit replication
